Source: paper PMC6987146, “Potent inhibition of HIV replication in primary human cells by novel synthetic polyketides inspired by Aureothin” (Scientific Reports, 2020)

What was measured:
[1] = test system: integrated proviral HIV-1 DNA; test: Integrated proviral HIV-1 DNA by Alu-PCR in LC5-RIC cells; type: cell-based; settings: HIV-1LAI, 48 h, concentrations >2x IC90, normalized to DMSO
Description: Quantitative analysis of integrated copies of HIV proviral DNA by Alu-PCR was performed essentially as described in[46]. Briefly, LC5-RIC cells seeded at a density of 100,000 cells per well in 12-well plates and incubated for 24 h were exposed to test compounds and HIV-1LAI virus inoculum at an MOI of 0.5 and incubated for further 48 h at 37 °C, 5% CO2. Subsequently, cells were harvested and genomic DNA (gDNA) was extracted using the QIAamp DNA Mini Kit (QIAGEN) according to the manufacturer’s protocol. The relative amount of integrated proviral HIV-1 DNA was determined by two-step Alu-PCR[46]. The relative amounts of integrated proviral HIV-1 DNA in treated versus untreated samples were calculated by the 2^(−ΔΔCt) method, with ΔCT values representing CT (HIV) - CT (β-globin) for each sample and ΔΔCT values representing values of treated samples normalized to untreated samples.

HIV-1LAI [2] = test: EASY-HIT assay: infectious virus production by LC5-RIC reporter cells exposed to HIV-1LAI; type: cell-based
Description: To identify natural compounds with anti-HIV activity we screened a collection of 10,000 natural compounds: Anti-HIV activity was evaluated by determining compound effects on infectious virus production by LC5-RIC cells which are highly susceptible for HIV and contain a DsRed1-encoding reporter gene activated by HIV-infection[6]–[8]. For screening, cultures of LC5-RIC reporter cells were first exposed to virus in the presence of the compound (first-step of the assay). Subsequently, supernatants of these cultures were transferred to secondary plates with uninfected LC5-RIC cells. The fluorescent signal of the cultures in the secondary plates served as a measure of compound effects on infectious virus production.
Anti-HIV activities of compounds were profiled in LC5-RIC cells with the EASY-HIT assay as described in[6]. Briefly, LC5-RIC cells were first exposed to virus and compounds (first step of the assay). Compound effects on infectious virus production were determined by transferring aliquots of supernatants of compound-treated cultures to secondary plates and measurement of fluorescent signal intensities in secondary plates after 72 h (second step of the assay). Fluorescent signal intensities determined for compound-treated cultures were normalized to those determined for untreated virus-exposed cultures.

LC5-RIC cells = test: CellTiter-Glo 2.0 cell viability assay in LC5-RIC cells; type: cell-based
Description: The following assays were used to profile cell safety of compound treatment in HIV-exposed cultures (LC5-RIC or PBMC): (1) CellTox^TM Green Cytotoxicity Assay, Promega, measures binding of a fluorescent dye to DNA of cells with impaired membrane integrity; (2) CellTiter-Glo® 2.0 Assay, Promega, which measures the amount of ATP in viable cells after lysis using an assay with luminescence read-out. Cells were plated into black 96-well plates followed by overnight incubation at 37 °C, 5% CO2. Compounds dissolved in DMSO were screened at multiple concentrations from 0.6 to 10,000 nM at a final DMSO concentration of 0.04% followed by additional 48 h incubation. Both assays were performed according to manufacturer’s recommendations and consecutively in the above mentioned order. Cells were washed once with PBS between the assays.

HIV-1LAI [3] = test: Inhibition of HIV infection of human PBMCs (infectious virus production, read out on LC5-RIC cells); type: cell-based; settings: human PBMCs exposed to HIV-1LAI, mean ± SD
Description: To evaluate anti-HIV efficacies of test compounds in primary human target cells, stimulated PBMCs were seeded in 96-well plates at a density of 500,000 cells per well, different #7concentrations of the compound (serial dilutions) and virus inoculum (MOI of 0.5) added to the PBMCs and cultures incubated for 48 h. Infectious virus production was quantified by transferring 35 µl of supernatant from the PBMC cultures to LC5-RIC cells, seeded in black 96-well plates one day earlier. LC5-RIC cultures were then incubated for 72 h and analysed for DsRed1 reporter expression and anti-HIV activity calculated as described for the EASY-HIT assay.

HIV-1LAI [4] = test: Photostability of anti-HIV activity (24 h illumination vs dark, EASY-HIT read-out); type: cell-based; settings: 24 h illumination; compounds at IC90; LC5-RIC
Description: Figure 1 Profiling of photostability of anti-HIV activity of Aureothin and synthetic Aureothin-derivatives. Anti-HIV activity of compound samples illuminated for 24 h were normalised to anti-HIV activity of samples of the same compound kept in the dark. Anti-HIV activity was measured by quantifying the amounts of infectious virus produced by HIV-1LAI exposed LC5-RIC cells treated with compounds at IC90 concentrations (Supplementary Table S1). […] Shown are means of at least three independent experiments with biological triplicates (n ≥ 3; m = 3) and the standard error of the mean (SEM) indicated.
LC5-RIC cells were plated as described for the EASY-HIT assay. […] Plates were incubated either in the dark or under constant illumination with a commercially available desk lamp (2X Philips Master PL-S-9W/840/2 P, 30 cm between light source and compounds) for 24 h at room temperature. For analysis of anti-HIV activity, compound samples were transferred to LC5-RIC cells and their anti-HIV activity determined by measuring compound effects on infectious virus production with the EASY-HIT assay. Relative photostability was calculated by normalizing the anti-HIV activity of the illuminated compounds to the antiviral activity of compounds kept in the dark.

HIV-2 = test system: HIV-2; parameters: method as in PMID 22293827, PMID 10465070; settings: virus intrinsically resistant; cited from earlier work
[5] = Human immunodeficiency virus 1, read-out: IC50, half maximal inhibitory concentration
[6] = Human immunodeficiency virus 1, LC5-RIC cells exposed to HIV-1LAI, infectious virus production, mean ± SD, read-out: IC50, half maximal inhibitory concentration

## C[C@@H]1CCO[C@H]2Cn3cc(C(=O)NCc4ccc(F)cc4F)c(=O)c(O)c3C(=O)N12 [Dolutegravir]
[1]
  reduction of levels of integrated proviral DNA: > 90%
HIV-1LAI [2]; [5]
  IC50: ~1 nM

## COc1oc([C@H]2C/C(=C/C(C)=C/c3ccc([N+](=O)[O-])cc3)CO2)c(C)c(=O)c1C [compound 1, Aureothin]
LC5-RIC cells
  CC50: > 10000 nM
HIV-1LAI [3]; read-out: IC50, half maximal HIV-inhibitory concentration
  IC50: 11.7 ± 1.37 nM
HIV-1LAI [3]; read-out: IC90, 90% HIV-inhibitory concentration
  IC90: 45 ± 3.33 nM
HIV-1LAI [2]; LC5-RIC cells exposed to HIV-1LAI, infectious virus production, mean ± SD, read-out: IC50, half maximal inhibitory concentration
  IC50: 5.3 ± 0.4 nM
HIV-1LAI [2]; read-out: IC90, 90% inhibitory concentration, LC5-RIC cells exposed to HIV-1LAI, infectious virus production, mean ± SD
  IC90: 26.8 ± 2.54 nM
HIV-1LAI [4]
  loss of anti-HIV-activity compared to the non-illuminated controls: ≥ 50%

## CC(C)(C)NC(=O)[C@@H]1C[C@@H]2CCCC[C@@H]2CN1C[C@@H](O)[C@H](Cc1ccccc1)NC(=O)[C@H](CC(N)=O)NC(=O)c1ccc2ccccc2n1 [Saquinavir]
HIV-1LAI [2]; [5]
  IC50: ~10 nM

## COc1oc([C@H]2C/C(=C/C(C)=C/C(C)=C/C(C)=C/c3ccc([N+](=O)[O-])cc3)CO2)c(C)c(=O)c1C [Neoaureothin]
HIV-1LAI [2]; [6]
  IC50: 2.2 ± 0.06 nM

## O=C1Nc2ccc(Cl)cc2[C@@](C#CC2CC2)(C(F)(F)F)O1 [Efavirenz]
[1]
  reduction of levels of integrated proviral DNA: > 90%
HIV-2
  activity against HIV-2: ineffective against HIV-2
HIV-1LAI [2]; [6]
  IC50: ~1 nM

## Enfuvirtide
HIV-2
  activity against HIV-2: ineffective against HIV-2
